In brackets after ≈: the same amount, converted by molar mass. Like-named read-outs stand apart in the source and are kept apart here.

These results are taken from paper PMC8859982 (Journal of medicinal chemistry, 2018).

Data set [1] concerns the target DHODH (Homo sapiens, UniProt Q02127). The experiment in a line: DHODH inhibition assay. As to conditions: for LipE: lipophilic ligand efficiency from DHODH pIC50 (M) and cLogP. It counts as biochemical.
The nature of data set [2]: Thermodynamic solubility. The class given is physicochemical. As to conditions: for solubility thermodynamic: PBS, pH 7.4, Thermodynamic solubility, PBS pH 7.4, CLND, each entry a single run.
Data set [3] concerns MIA PaCa-2. As to conditions: MIA PaCa-2, comparator brequinar.
The test system of data set [4] is HCT-116. As to conditions: HCT-116, comparator brequinar.
Data set [5] in a line: Pharmacokinetic study in female CD-1 mice. The class given is in vivo.
For data set [6] the following is noted: clinical trial, cited from earlier work.
The conditions of data set [7]: pH 7.4; cited from earlier work.

Chain of DHODH (Q02127 whole entry): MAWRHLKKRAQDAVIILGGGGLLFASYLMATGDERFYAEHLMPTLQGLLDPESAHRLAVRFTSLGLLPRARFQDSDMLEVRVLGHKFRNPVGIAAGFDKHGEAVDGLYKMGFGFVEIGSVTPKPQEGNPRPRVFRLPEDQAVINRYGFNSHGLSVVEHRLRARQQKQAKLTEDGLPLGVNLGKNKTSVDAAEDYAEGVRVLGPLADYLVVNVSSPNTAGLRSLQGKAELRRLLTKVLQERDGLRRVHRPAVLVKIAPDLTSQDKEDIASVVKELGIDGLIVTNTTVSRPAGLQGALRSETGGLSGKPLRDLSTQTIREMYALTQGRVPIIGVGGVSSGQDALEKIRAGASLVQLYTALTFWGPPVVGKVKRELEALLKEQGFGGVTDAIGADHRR

With `O=C(O)c1cc(-c2ccc(-c3cccnc3F)cc2)nc2ccccc12` [compound 28, 2-(4-(2-Fluoropyridin-3-yl)phenyl)quinoline-4-carboxylic Acid], the “fold less potent than 22 (DHODH)” value in data set [1] (comparator 22) turned out to be 9 fold. For the same compound, in data set [1] (comparator 26), the “fold less potent than 26 (DHODH)” value is 64 fold. Besides, in data set [1], the LipE was 1.45.

In data set [2], `O=C(O)c1cc(-c2ccc(C3CCCCC3)cc2)nc2ccccc12` [compound 3, 2-(4-Cyclohexylphenyl)quinoline-4-carboxylic Acid] yielded a thermodynamic solubility of 14.5 µg/mL (≈ 43.8 µM).

Take `Cc1c(-c2ccc(-c3ccccc3F)cc2)nc2cnc(C(F)(F)F)cc2c1C(=O)O` [compound 52, 2-(2’-Fluoro-[1,1’-biphenyl]-4-yl)-3-methyl-6-(trifluoromethyl)-1.7-naphthyridine-4-carboxylic Acid]: the “fold more potent than brequinar in the MTT assay” value in data set [3] and in data set [4] was “at least 2 fold” throughout. Besides, the LipE in data set [1] is listed as 2.74.

As for `Cc1c(-c2ccc(-c3ccccc3)cc2)nc2cnc(C(F)(F)F)cc2c1C(=O)O` [compound 48, 2-([1,1′-Biphenyl]-4-yl)-3-methyl-6-(trifluoromethyl)-1,7-naphthyridine-4-carboxylic Acid], in data set [1], the LipE is recorded as 2.63.

For `Cc1c(-c2ccc(-c3cccnc3Cl)cc2)nc2ccc(F)cc2c1C(=O)O` [compound 41, 2-(4-(2-Chloropyridin-3-yl)phenyl)-6-fluoro-3-methylquinoline-4-carboxylic Acid], in data set [2], the solubility (thermodynamic) was 393 µg/mL (≈ 1000 µM). The half-life in data set [5] (female, CD-1, mouse, plasma, intravenous, oral) fell in the range of 164 to 167 min. In data set [5] (mice, PO 20 mg/kg), this compound yielded a CL-F of 555 mL/h/kg and a Vz_F of 2226 mL/kg.

Regarding `Cc1c(-c2ccc(-c3ccccc3F)cc2)nc2ccc(F)cc2c1C(=O)O` [compound 1, brequinar], in data set [6] (IV 8 mg/m^2), the CL is reported as 3.2 L/h/m^2, the Cmax was 1.8 µg/mL, the Vss is given as 8.2 L/m^2 and the t1/2 is listed as 2.9 h. Moreover, in data set [6] (IV 16 mg/m^2), the CL was 4.9 L/h/m^2, the peak concentration (Cmax) is 2.7 µg/mL, the Vss is 11.6 L/m^2 and the t1/2 is reported as 3.1 h. Further, in data set [6] (IV 36 mg/m^2), the Vss is 7.48 L/m^2. This compound also yielded a thermodynamic solubility in data set [2] of 407 µg/mL (≈ 1090 µM). In data set [1], this compound registered a LipE of 2.20.

Take `Cc1c(-c2ccc(-c3ccccc3)cc2)nc2cnccc2c1C(=O)O` [compound 46, 2-([1,1′-Biphenyl]-4-yl)-3-methyl-1,7-naphthyridine-4-carboxylic Acid]: the “fold more soluble than brequinar” value in data set [2] (PBS at pH 7.4) is 2.5–3 ×. The solubility (thermodynamic) in data set [2] worked out at 1050 µg/mL (≈ 3100 µM). For the same compound, the LipE in data set [1] amounted to 3.39.

Regarding `Cc1c(-c2ccc(-c3cccnc3Cl)cc2)nc2cnc(C(F)(F)F)cc2c1C(=O)O` [compound 51, 2-(4-(2-Chloropyridin-3-yl)phenyl)-3-methyl-6-(trifluoromethyl)-1.7-naphthyridine-4-carboxylic Acid], in data set [1], the LipE is on record as 2.69.

In the case of `Cc1ccc(-c2ccc(-c3nc4cnccc4c(C(=O)O)c3C)cc2)c(Cl)n1` [compound 50, 2-(4-(2-Chloro-6-methylpyridin-3-yl)phenyl)-3-methyl-1,7-naphthyridine-4-carboxylic Acid], in data set [1], the LipE is reported as 1.65.

As for `Cc1c(-c2ccc(-c3ccccc3F)cc2)nc2ccc(F)cc2c1C(=O)O` [Brequinar sodium], the water solubility in data set [7] is given as below 0.10 mg/mL.

In data set [1], `Cc1c(-c2ccc(-c3cccnc3Cl)cc2)nc2cnccc2c1C(=O)O` [compound 49, 2-(4-(2-Chloropyridin-3-yl)phenyl)-3-methyl-1,7-naphthyridine-4-carboxylic Acid] yielded a LipE of 3.46.

As for `Cc1c(-c2ccc(-c3ccccc3)cc2)nc2ccncc2c1C(=O)O` [compound 47, 2-([1,1′-Biphenyl]-4-yl)-3-methyl-1,6-naphthyridine-4-carboxylic Acid], in data set [1], the LipE is listed as 1.39.

The compound `Cc1c(-c2ccc(-c3ccccc3)cc2)nc2ncccc2c1C(=O)O` [compound 45, 2-([1,1′-Biphenyl]-4-yl)-3-methyl-1,8-naphthyridine-4-carboxylic Acid] showed a LipE in data set [1] of 1.75.

Usually thermodynamic solubility stands for solubility found after equilibrating the solid with the medium. A word on the half-life: it is the time in which the quantity being followed falls by half. A low value points to rapid decline. The Cmax is the highest concentration seen after dosing.
